Experimental findings from US10221173B2, “Chemical compounds” (AstraZeneca AB, priority 2017, dated 2019) are described below.

Values after ≈ are worked out from the molar mass of the structure shown.

Data set [1] has as its target recombinant human Estrogen Receptor alpha ligand binding domain (ER alpha-LBD (GST)) (Homo sapiens (Human), UniProt P03372). Description: ERα binding assay (LanthaScreen TR-FRET competition). Background: In TR-FRET formats the signal depends on donor and acceptor labels being close together.
Data set [2] concerns the target Estrogen Receptor (ERα) in MCF-7 cells (Homo sapiens (Human), UniProt P03372). In words: MCF-7 ER down-regulation assay (immuno-fluorescence). It is filed as cell-based.
Data set [3] is described as follows: Log D (shake flask, 1-octanol/aqueous buffer). It is filed as physicochemical. Particulars: for logD: 1-octanol/aqueous buffer, pH 7.4, pH 7.4.
The nature of data set [4]: Thermodynamic solubility (shake-flask). It is filed as physicochemical. Particulars: phosphate buffer pH 7.4, 24 hours.
Data set [5] can be described thus: Human plasma protein binding (equilibrium dialysis). It is filed as in vitro ADME. A general note: In equilibrium dialysis only unbound substance equilibrates across the membrane.
Setting [6] is: aqueous phosphate buffer, 25 °C, pH 7.4, aqueous buffer, thermodynamic from solid.

Chain of recombinant human Estrogen Receptor alpha ligand binding domain (ER alpha-LBD (GST)) (P03372 307-554): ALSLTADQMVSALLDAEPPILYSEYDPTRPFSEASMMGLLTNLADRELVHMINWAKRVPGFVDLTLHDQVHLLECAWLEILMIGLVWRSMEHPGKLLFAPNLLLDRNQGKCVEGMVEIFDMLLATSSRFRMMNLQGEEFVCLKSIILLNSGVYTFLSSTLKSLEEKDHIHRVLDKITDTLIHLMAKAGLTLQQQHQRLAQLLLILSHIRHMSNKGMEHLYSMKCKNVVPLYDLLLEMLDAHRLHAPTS
Chain of Estrogen Receptor (ERα) in MCF-7 cells (P03372 whole entry): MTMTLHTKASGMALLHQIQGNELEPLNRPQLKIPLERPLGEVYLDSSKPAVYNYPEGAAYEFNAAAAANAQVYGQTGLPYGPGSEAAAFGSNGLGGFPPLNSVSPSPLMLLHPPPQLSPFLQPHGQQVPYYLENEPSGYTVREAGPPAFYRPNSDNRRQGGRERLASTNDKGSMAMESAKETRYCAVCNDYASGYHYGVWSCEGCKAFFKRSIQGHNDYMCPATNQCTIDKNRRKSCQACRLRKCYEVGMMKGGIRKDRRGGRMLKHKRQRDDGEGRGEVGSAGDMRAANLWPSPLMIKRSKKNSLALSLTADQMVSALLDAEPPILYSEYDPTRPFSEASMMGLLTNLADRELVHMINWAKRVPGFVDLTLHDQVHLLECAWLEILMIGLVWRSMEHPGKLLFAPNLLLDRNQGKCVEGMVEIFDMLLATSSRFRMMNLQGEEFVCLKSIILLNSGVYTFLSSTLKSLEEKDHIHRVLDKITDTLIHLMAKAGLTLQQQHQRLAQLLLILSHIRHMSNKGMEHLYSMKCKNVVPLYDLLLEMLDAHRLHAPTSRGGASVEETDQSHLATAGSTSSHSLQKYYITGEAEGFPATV

Broadly, the IC50 is the midpoint of a concentration-inhibition curve. A word on the logD: it is lipophilicity at a set pH, counting ionised and neutral species. A word on the solubility: it is how much of the substance goes into solution per volume. Low readings indicate little dissolved substance, high ones much dissolved substance. As to `CC(CN1[C@H](c2c(Cl)ccc(OCCNCCCF)c2Cl)c2[nH]c3ccc(F)cc3c2C[C@H]1C)C(=O)O` (single isomer, unassigned) [Example 129], the values for the IC50 in data set [1] and in data set [2] were 8.9 nM and 2.6 nM, respectively. For the same compound, in data set [3], the logD amounted to 1.5. The compound also returned a solubility at 24 h in data set [4] (setting [6]) of 953 µM (≈ 528 µg/mL). In data set [5], the “Human plasma protein binding (% free)” value was 23 % free.
On to `CC(CN1[C@H](c2c(Cl)ccc(OCCNCCCF)c2Cl)c2[nH]c3ccc(F)cc3c2C[C@H]1C)C(=O)O` (single isomer, unassigned) [Example 130], for which the values for the IC50 in data set [1] and in data set [2] were 1.8 nM and 1.3 nM, respectively. In data set [3] (pH 7.4), the “LogD pH 7.4” value is reported as 1.5. Besides, the solubility at 24 h in data set [4] (25° C.) came to 854 µM (≈ 474 µg/mL). The “Human plasma protein binding (% free)” value in data set [5] amounted to 7.8 % free.
Turning to `COc1c(OCCNCCCF)cccc1[C@@H]1c2[nH]c3ccccc3c2C[C@@H](C)N1CC1(F)COC1` [Example 5, 3-fluoro-N-(2-(3-((1R,3R)-2-((3-fluorooxetan-3-yl)methyl)-3-methyl-2,3,4,9-tetrahydro-1H-pyrido[3,4-b]indol-1-yl)-2-methoxyphenoxy)ethyl)propan-1-amine], the IC50 in data set [1] worked out at 45 nM; in data set [2], 25 nM. In data set [4] (setting [6]), the solubility at 24 h came to 357 µM (≈ 178 µg/mL).
Regarding `COc1cc(F)c(OCCNCCCF)cc1[C@@H]1c2[nH]c3ccccc3c2C[C@@H](C)N1CC(F)(F)F` [Example 28, 3-fluoro-N-(2-(2-fluoro-4-methoxy-5-((1R,3R)-3-methyl-2-(2,2,2-trifluoroethyl)-2,3,4,9-tetrahydro-1H-pyrido[3,4-b]indol-1-yl)phenoxy)ethyl)propan-1-amine], the IC50 in data set [1] is 2.8 nM; in data set [2], 0.8 nM. The compound also showed a logD in data set [3] of 3.8. The compound also displayed a solubility at 24 h in data set [4] (setting [6]) of 40 µM (≈ 20.5 µg/mL). Moreover, in data set [5], the “Human plasma protein binding (% free)” value stood at 1.2 % free.
For the compound `Cc1c(OCCNCCCF)cncc1[C@@H]1c2[nH]c3ccccc3c2C[C@@H](C)N1CC(F)(F)F` [Example 38, 3-fluoro-N-(2-((4-methyl-5-((1R,3R)-3-methyl-2-(2,2,2-trifluoroethyl)-2,3,4,9-tetrahydro-1H-pyrido[3,4-b]indol-1-yl)pyridin-3-yl)oxy)ethyl)propan-1-amine], the IC50 in data set [2] came to 0.19 nM. The “Human plasma protein binding (% free)” value in data set [5] is on record as 0.91 % free.
On to `COc1ccc(OC[C@H](C)NCCCF)cc1[C@@H]1c2[nH]c3ccccc3c2C[C@@H](C)N1CC(F)(F)CO` [Example 49, 2,2-difluoro-3-((1R,3R)-1-(5-((S)-2-((3-fluoropropyl)amino)propoxy)-2-methoxyphenyl)-3-methyl-1,3,4,9-tetrahydro-2H-pyrido[3,4-b]indol-2-yl)propan-1-ol], for which the figures for the IC50 in data set [1] and in data set [2] were 1.2 nM and 0.15 nM, respectively. Also, the logD in data set [3] came out at 2.8. The solubility at 24 h in data set [4] (setting [6]) worked out at 335 µM (≈ 174 µg/mL).
`COc1ccc(OC[C@@H](C)NCCCF)cc1[C@@H]1c2[nH]c3ccccc3c2C[C@@H](C)N1CC(F)(F)CO` [Example 50, 2,2-difIuoro-3-((1R,3R)-1-(5-((S)-2-((3-fluoropropyl)amino)propoxy)-2-methoxyphenyl)-3-methyl-1,3,4,9-tetrahydro-2H-pyrido[3,4-b]indol-2-yl)propan-1-ol]: the IC50 in data set [1] was determined as 1 nM; in data set [2], 0.81 nM. Besides, the “% downregulation (in brackets)” value in data set [2] (maximum downregulation) was determined as 81%. The compound further returned a logD in data set [3] of 2.8. In data set [4] (setting [6]), this compound had a solubility at 24 h of 461 µM (≈ 240 µg/mL). Also, the “Human plasma protein binding (% free)” value in data set [5] is 7.1 % free.
`COc1ccc(OCCNCCCF)nc1[C@@H]1c2[nH]c3ccccc3c2C[C@@H](C)N1CC(F)(F)F` [Example 56, 3-fluoro-N-(2-((5-methoxy-6-((1S,3R)-3-methyl-2-(2,2,2-trifluoroethyl)-2,3,4,9-tetrahydro-1H-pyrido[3,4-b]indol-1-yl)pyridin-2-yl)oxy)ethyl)propan-1-amine]: the IC50 in data set [1] was 39 nM; in data set [2], 14 nM. This compound also registered a logD in data set [3] of 2.7. In data set [4] (setting [6]), this compound registered a solubility at 24 h of 445 µM (≈ 220 µg/mL). For the same compound, the “Human plasma protein binding (% free)” value in data set [5] amounted to 4.6 % free.
For `C[C@@H]1Cc2c([nH]c3ccccc23)[C@@H](c2cccc(OCCNCCCF)c2C#N)N1CC(F)(F)F` [Example 69, 2-(2-((3-fluoropropyl)amino)ethoxy)-6-((1R,3R)-3-methyl-2-(2,2,2-trifluoroethyl)-2,3,4,9-tetrahydro-1H-pyrido[3,4-b]indol-1-yl)benzonitrile], the IC50 in data set [1] is 1.4 nM; in data set [2], 1.5 nM. This compound displayed a logD in data set [3] of 3.6. For the same compound, the solubility at 24 h in data set [4] (setting [6]) came out at 150 µM (≈ 73.3 µg/mL). The “Human plasma protein binding (% free)” value in data set [5] turned out to be 2.2 % free.
For `COc1ccc(OCCNCCC(F)(F)F)cc1[C@@H]1c2[nH]c3ccccc3c2C[C@@H](C)N1CC(F)(F)F` [Example 72, 3,3,3-trifluoro-N-(2-(4-methoxy-3-((1R,3R)-3-methyl-2-(2,2,2-trifluoroethyl)-2,3,4,9-tetrahydro-1H-pyrido[3,4-b]indol-1-yl)phenoxy)ethyl)propan-1-amine], the IC50 in data set [1] stood at 1.4 nM; in data set [2], 0.49 nM. Besides, the logD in data set [3] amounted to 5.2. In addition, in data set [4] (setting [6]), the solubility at 24 h is < 0.2 µM. Also, the “Human plasma protein binding (% free)” value in data set [5] was <0.1 % free.
In data set [4] (setting [6]), `C[C@@H]1Cc2c([nH]c3ccccc23)[C@@H](c2cc(F)cc(OCCNCCCF)c2)N1CC(F)(F)F` [Example 73, 3-fluoro-N-(2-(3-fluoro-5-((1R,3R)-3-methyl-2-(2,2,2-trifluoroethyl)-2,3,4,9-tetrahydro-1H-pyrido[3,4-b]indol-1-yl)phenoxy)ethyl)propan-1-amine] yielded a solubility at 24 h of 7 µM (≈ 3.37 µg/mL).
On the same count and under the same terms, in the case of `C[C@@H]1Cc2c([nH]c3ccccc23)[C@@H](c2ccc(F)c(OCCNCCCF)c2)N1CC(F)(F)F` [Example 74, 3-fluoro-N-(2-(2-fluoro-5-((1R,3R)-3-methyl-2-(2,2,2-trifluoroethyl)-2,3,4,9-tetrahydro-1H-pyrido[3,4-b]indol-1-yl)phenoxy)ethyl)propan-1-amine] it was 0.9 µM (≈ 0.433 µg/mL).
On to `C[C@@H]1Cc2c([nH]c3ccccc23)[C@@H](c2c(Cl)ccc(OCCNCCCF)c2F)N1CC(F)(F)F` [Example 78, N-(2-(4-chloro-2-fluoro-3-((1R,3R)-3-methyl-2-(2,2,2-trifluoroethyl)-2,3,4,9-tetrahydro-1H-pyrido[3,4-b]indol-1-yl)phenoxy)ethyl)-3-fluoropropan-1-amine], for which the IC50 in data set [1] came out at 1.3 nM; in data set [2], 0.12 nM. In data set [3], this compound displayed a logD of 4. The compound also showed a solubility at 24 h in data set [4] (setting [6]) of 26 µM (≈ 13.4 µg/mL). Besides, the “Human plasma protein binding (% free)” value in data set [5] is 0.21 % free.
In data set [4] (setting [6]), `Cc1ccc(OCCNCCCF)c(F)c1[C@@H]1c2[nH]c3ccccc3c2C[C@@H](C)N1CC(F)(F)F` [Example 80, 3-fluoro-N-(2-(2-fluoro-4-methyl-3-((1R,3R)-3-methyl-2-(2,2,2-trifluoroethyl)-2,3,4,9-tetrahydro-1H-pyrido[3,4-b]indol-1-yl)phenoxy)ethyl)propan-1-amine] had a solubility at 24 h of 13 µM (≈ 6.44 µg/mL).
In the case of `C[C@@H]1Cc2c([nH]c3ccccc23)[C@@H](c2cc(OCCNCCCF)ncn2)N1CC(F)(F)F` [Example 113, 3-fluoro-N-(2-((6-((1S,3R)-3-methyl-2-(2,2,2-trifluoroethyl)-2,3,4,9-tetrahydro-1H-pyrido[3,4-b]indol-1-yl)pyrimidin-4-yl)oxy)ethyl)propan-1-amine], the values for the IC50 in data set [1] and in data set [2] were 17 nM and > 300 nM, respectively. Also, the logD in data set [3] stood at 4.1. In addition, the solubility at 24 h in data set [4] (setting [6]) was < 1.6 µM.
For the compound `Cc1c(OCCNCCCF)ccc(F)c1[C@@H]1c2[nH]c3ccccc3c2C[C@@H](C)N1CCC(=O)O` [Example 116, 3-((1R,3R)-1-(6-fluoro-3-(2-((3-fluoropropyl)amino)ethoxy)-2-methylphenyl)-3-methyl-1,3,4,9-tetrahydro-2H-pyrido[3,4-b]indol-2-yl)propanoic acid], the solubility at 24 h in data set [4] (setting [6]) is > 1000 µM.
`C[C@@H]1Cc2c([nH]c3ccccc23)[C@@H](c2c(F)ccc(OCCNCCCF)c2Cl)N1CC(C)(C)C(=O)O` [Example 131, 3-((1R,3R)-1-(2-chloro-6-fluoro-3-(2-((3-fluoropropyl)amino)ethoxy)phenyl)-3-methyl-1,3,4,9-tetrahydro-2H-pyrido[3,4-b]indol-2-yl)-2,2-dimethylpropanoic acid] came in with a logD in data set [3] of 1.2. The solubility at 24 h in data set [4] (setting [6]) is > 1000 µM. The “Human plasma protein binding (% free)” value in data set [5] is reported as 32 % free.
Regarding `Cc1c(N(C)CCN(C)CCCF)ccc(F)c1[C@@H]1c2[nH]c3ccccc3c2C[C@@H](C)N1C[C@H](C)C(=O)O` [Example 147, (S)-3-((1R,3R)-1-(6-fluoro-3-((2-((3-fluoropropyl)(methyl)amino)ethyl)(methyl)amino)-2-methylphenyl)-3-methyl-1,3,4,9-tetrahydro-2H-pyrido[3,4-b]indol-2-yl)-2-methylpropanoic acid], in data set [1], the IC50 worked out at 51 nM. For the same compound, in data set [5], the “Human plasma protein binding (% free)” value stood at 19 % free.
On to `Cc1c(OCCNCCC(F)F)ccc(F)c1[C@@H]1c2[nH]c3ccc(F)cc3c2C[C@@H](C)N1C[C@@H](C)C(=O)O` [Example 162, (R)-3-((1R,3R)-1-(3-(2-((3,3-difluoropropyl)amino)ethoxy)-6-fluoro-2-methylphenyl)-6-fluoro-3-methyl-1,3,4,9-tetrahydro-2H-pyrido[3,4-b]indol-2-yl)-2-methylpropanoic acid], for which, in data set [3], the logD is 1.8. The solubility at 24 h in data set [4] (setting [6]) is > 1000 µM. Moreover, in data set [5], the “Human plasma protein binding (% free)” value is given as 27 % free.
